# Laboratory results published in PubChem BioAssay (NCI).
# “And” between values parts separate entries of the source, which are not always exact repeats. Identical values can stand only once.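 The compound was tested at five concentrations on cells cultured in 96-well plates, with a 48-hour exposure period. The concentration for 50% growth inhibition is given as GI50. TGI is the concentration that stops growth completely.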
# Key:
# Test in all cases: DTP human tumour cell line panel, 48 h
# [1] = system: SK-MEL-2 melanoma
# [2] = system: HCT-116 colon
# [3] = system: MALME-3M melanoma
# [4] = system: KM12 colon
# [5] = system: SR leukemia
# [6] = system: A549 NSCLC
# [7] = system: SN12C renal
# [8] = system: SK-MEL-5 melanoma
# [9] = system: TK-10 renal
# [10] = system: SW-620 colon
# [11] = system: MDA-MB-231 breast
SMILES,TGI [1] [µM],TGI [2] [µM],TGI [3] [µM],TGI [4] [µM],TGI [5] [µM],TGI [6] [µM],TGI [7] [µM],TGI [8],TGI [9] [µM],TGI [10] [µM],GI50 [2] [nM],GI50 [3] [nM],GI50 [6] [nM],GI50 [7] [nM],GI50 [8] [nM],GI50 [10] [nM],TGI [11] [µM]
CC1=NN(C(=O)Cc2ccccc2)C(=O)/C1=C\c1ccco1,> 100,> 100,> 100,> 100,> 100,> 100,> 100,> 100 µM,> 100,> 100,,,,,,,
COc1cc([C@@H]2c3cc4c(c(O)c3C[C@H]3COC(=O)[C@@H]32)OCO4)cc(OC)c1O,6.56,> 20,,> 200,,> 200,0.431,0.00624 µM and < 0.02 µM,,> 200,3.9,1.16,3.85,3.72,2.21,3.97,
[N-]=[N+]=NC1=C(c2ccccc2)C(=O)c2cccc3cccc1c23,> 100,> 100,> 100,> 100,> 100,> 100,> 100,18.1 µM,74.6,> 100,,,,,,,
Cc1c2cccc-2c(OCCO)cc2c1[nH]c1ccccc12,12,> 23.2,3.49,7.04,,11.6,11.8,2.95 µM,14.2,> 74.7,,,,,,,6.56
CC1(C)C2CCC1(CC(=O)O)C(Cl)C2 (stereo not drawn),> 100,> 100,> 100,> 100,,> 100,> 100,> 100 µM,> 100,> 100,,,,,,,> 100
C[C@@H]1OC(=O)/C(=C\N(C)C)[C@H]2CC(=O)N(CCc3cn(S(=O)(=O)C(F)(F)F)c4ccccc34)C[C@H]12,> 100,> 100,> 100,> 100,,> 100,> 100,> 100 µM,> 100,> 100,,,,,,,> 100
Cc1cc(NCCCCCCNc2cc(C)nc3ccc(Cl)cc23)c2cc(Cl)ccc2n1,46,30.8,75.6,30.9,> 100,45.9,47.2,32.8 µM,62.1,,,,,,,,
CCN(CC)C1=Nc2ccccc2-n2c(C)cnc2C1,> 100,> 100,> 100,> 100,,> 100,> 100,> 100 µM,> 100,> 100,,,,,,,> 100
c1ccc2c(c1)C(=Nc1ccc(N=C3c4ccccc4-c4ccccc43)cc1)c1ccccc1-2,> 100,> 100,> 100,> 100,,> 100,> 100,> 100 µM,> 100,> 100,,,,,,,> 100
COC(=O)NN1C(=O)C(=P(c2ccccc2)(c2ccccc2)c2ccccc2)C(C(=O)OC)=C1C,> 100,,> 100,,,,> 100,> 100 µM,> 100,> 100,,,,,,,
COc1ccc([C@@H]2CC(=O)NCCCCNCCCN2)cc1,> 100,> 100,> 100,> 100,> 100,> 100,> 100,> 100 µM,> 100,> 100,,,,,,,
